Literature values as cited in US4873075A, “Polyiodinated triglyceride analogs as radiologic agents” (The University of Michigan, priority 1985, dated 1989).

Tested on: liver
Settings: background statement

tetraiodotetrachlorofluorescein [^131 I-Rose Bengal]
hepatic to intestinal output: slow rate of hepatic to intestinal output
